Like-named read-outs stand apart in the source and are kept apart here.
How the values were obtained:
PrP^sc [1] = system: PrP^sc
[2] = biological target: recPrP (recombinant protein prion) (Homo sapiens, UniProt P04156); details: recPrP 42 μM diluted with an equivalent volume of streptomycin 1 g/ml; dried on mica
PrP^sc [3] = biological target: PrP^sc (Ovis aries, UniProt P23907); type: binding; details: 2000 μg streptomycin; PrP^sc from 920 μg sheep brain afflicted with trembling; from increase of apparent molecular weight
PrP^sc (Ovis aries, UniProt P23907), sequence (P23907 25-233 limits assumed): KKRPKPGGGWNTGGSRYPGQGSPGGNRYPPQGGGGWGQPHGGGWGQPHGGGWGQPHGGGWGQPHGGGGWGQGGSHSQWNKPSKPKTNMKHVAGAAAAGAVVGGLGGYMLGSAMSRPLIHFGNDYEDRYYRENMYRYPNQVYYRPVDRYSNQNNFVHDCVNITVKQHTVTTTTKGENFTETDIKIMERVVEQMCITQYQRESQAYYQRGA

protein prion [4] = biological target: protein prion (Homo sapiens, UniProt P04156); type: binding; details: LCR
PrP^sc [5] = details: precipitates, ESB bovine brain homogenate
protein prion [6] = type: binding, human; details: 50 μg/ml final concentration streptomycin; LCR(+) at any proteinase K concentration, LCR(−) only without digestion
PrP^sc [7] = type: binding, bovine

[H]/N=C(/N)N[C@H]1[C@H](O)[C@@H](O)[C@H](O[C@@H]2O[C@@H](C)[C@](O)(C=O)[C@H]2O[C@@H]2O[C@@H](CO)[C@H](O)[C@@H](O)[C@@H]2NC)[C@@H](N/C(N)=N\[H])[C@@H]1O [streptomycin]
detection of PrP^sc compared with the reference technique (PrP^sc [1]): permits better detection of cases that are slightly positive
surface organization of the film of the recPrP/streptomycin mixture [2]: amorphous surface
number of streptomycin molecules attached per band of PrP^sc (PrP^sc [3]): 10 to 12 molecules of streptomycin per band of PrP^sc
apparent size of the protein prion band after streptomycin treatment (protein prion [4]; 0.1 g/ml streptomycin, no proteinase K digestion): approximately 50 kDa
binding of streptomycin to the protein prion (protein prion [4]; absence of digestion by proteinase K, streptomycin 0.1 and 0.2 g/ml): bonds well to the protein prion
dilution down to which PrP^sc is detectable (PrP^sc [5]; 5 μl streptomycin, without streptomycin the limit is 1/16): 1/128
dilution down to which PrP^sc is detectable (PrP^sc [5]; 10 μl streptomycin, most diluted sample tested): 1/256
apparent molecular mass of the band observed after streptomycin treatment (protein prion [6]): approximately 35 kDa
precipitation of PrP^sc (PrP^sc [7]; 20 μl streptomycin at 1 g/ml, 100 μl bovine brain suspension after proteinase K, second hour at 37° C.): totally precipitated the PrP^sc
location of PrP^sc bands (supernatant or bottom) (PrP^sc [7]; brain sample diluted 1/25, proteinase K and streptomycin added simultaneously, one hour incubation): in the bottom in the presence of any concentration of streptomycin

Reference: patent publication US7695918B2 (priority 2002, dated 2010)
